From ChEMBL document CHEMBL1201862, “PubChem BioAssay data set” (2004)
Activity calls are given as the source filed them.

Key:
[1] = biological target: T1, Neuropeptide Y receptor type 2 (Homo sapiens, UniProt P49146); format: functional, cell-based;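 also: HEK293 cells expressing the receptor and a CNG channel; stimulus was NPY near EC95 followed by isoproterenol to raise cAMP; antagonist potency measured as restoring cAMP signal that NPY suppresses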
T1 sequence (P49146 whole entry): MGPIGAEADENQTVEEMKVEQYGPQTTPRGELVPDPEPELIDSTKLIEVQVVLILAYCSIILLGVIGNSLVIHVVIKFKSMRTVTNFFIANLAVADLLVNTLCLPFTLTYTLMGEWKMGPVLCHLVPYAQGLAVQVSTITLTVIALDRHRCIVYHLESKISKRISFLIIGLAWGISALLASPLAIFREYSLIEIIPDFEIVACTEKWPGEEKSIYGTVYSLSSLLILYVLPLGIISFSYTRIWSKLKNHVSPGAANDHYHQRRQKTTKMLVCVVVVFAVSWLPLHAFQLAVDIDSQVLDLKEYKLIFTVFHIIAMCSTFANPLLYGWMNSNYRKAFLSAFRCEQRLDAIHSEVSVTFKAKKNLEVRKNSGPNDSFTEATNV

[2] = biological target: T2, Neuropeptide Y receptor type 1 (Homo sapiens, UniProt P25929); format: functional;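 also: HEK293 cells with a CNG channel challenged with NPY then isoproterenol; potency as antagonist that reverses NPY suppression of cAMP signal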
T2 sequence (P25929 whole entry): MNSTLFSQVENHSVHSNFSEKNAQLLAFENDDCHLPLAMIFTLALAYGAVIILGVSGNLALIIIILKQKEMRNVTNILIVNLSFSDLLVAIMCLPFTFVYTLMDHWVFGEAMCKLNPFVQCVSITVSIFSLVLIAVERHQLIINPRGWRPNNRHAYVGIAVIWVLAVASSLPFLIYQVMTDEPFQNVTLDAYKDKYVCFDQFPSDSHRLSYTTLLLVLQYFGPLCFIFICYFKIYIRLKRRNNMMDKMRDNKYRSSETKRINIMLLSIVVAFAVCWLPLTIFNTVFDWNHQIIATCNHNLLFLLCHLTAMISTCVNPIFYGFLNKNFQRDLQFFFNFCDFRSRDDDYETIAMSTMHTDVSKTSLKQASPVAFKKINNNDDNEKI

[3] = biological target: T3, Short transient receptor potential channel 4 (Mus musculus, UniProt Q9QUQ5); assay: mouse TRPC4 channel activators, dose response, cell-based, HEK293 TRPC4/mu-opioid, Fluo-4 calcium (AID 434937); format: functional
T3 sequence (Q9QUQ5 whole entry): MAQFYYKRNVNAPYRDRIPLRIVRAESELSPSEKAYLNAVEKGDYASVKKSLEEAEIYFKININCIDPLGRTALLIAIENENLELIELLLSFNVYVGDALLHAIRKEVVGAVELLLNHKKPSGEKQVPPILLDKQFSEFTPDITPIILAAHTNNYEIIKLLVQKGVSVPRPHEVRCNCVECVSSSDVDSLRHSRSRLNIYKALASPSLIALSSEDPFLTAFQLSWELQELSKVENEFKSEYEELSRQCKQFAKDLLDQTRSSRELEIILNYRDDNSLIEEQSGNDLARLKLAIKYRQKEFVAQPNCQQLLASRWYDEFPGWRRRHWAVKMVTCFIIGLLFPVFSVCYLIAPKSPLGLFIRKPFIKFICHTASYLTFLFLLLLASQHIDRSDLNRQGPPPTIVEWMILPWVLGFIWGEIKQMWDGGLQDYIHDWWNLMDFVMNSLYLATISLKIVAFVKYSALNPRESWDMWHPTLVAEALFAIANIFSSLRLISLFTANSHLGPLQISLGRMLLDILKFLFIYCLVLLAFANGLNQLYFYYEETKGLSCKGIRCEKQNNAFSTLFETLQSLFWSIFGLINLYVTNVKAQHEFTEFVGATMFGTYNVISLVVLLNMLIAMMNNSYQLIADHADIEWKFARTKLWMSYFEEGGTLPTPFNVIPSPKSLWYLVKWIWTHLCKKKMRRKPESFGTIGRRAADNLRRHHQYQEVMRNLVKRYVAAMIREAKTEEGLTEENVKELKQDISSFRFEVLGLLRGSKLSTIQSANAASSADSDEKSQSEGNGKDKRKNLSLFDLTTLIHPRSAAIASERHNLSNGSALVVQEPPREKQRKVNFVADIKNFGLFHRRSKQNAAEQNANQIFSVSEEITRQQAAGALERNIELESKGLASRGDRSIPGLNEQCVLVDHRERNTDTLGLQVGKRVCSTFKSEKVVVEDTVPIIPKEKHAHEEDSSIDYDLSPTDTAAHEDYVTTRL

[4] = biological target: Vasopressin V1a receptor (Homo sapiens, UniProt P37288); assay: Fluorescence-based cell-based high throughput dose response screening assay for agonists of the vasopressin 1 receptor (V1R).; format: functional
[5] = system: Streptococcus; assay: Group A Streptococcus viability loss, dose response, counter-screen for streptokinase expression inhibitor project, luminescence, BacTiterGlo (AID 1915); format: functional, organism-based;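 also: potency for reduction of bacterial viability or growth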
[6] = system: Streptococcus sp. 'group A'; assay: growth inhibition of control SK(-) GAS strain, dose response, counter-screen for streptokinase expression inhibitor project, luminescence, kanamycin, BacTiterGlo, confirmation (AID 1900); format: functional, organism-based
[7] = biological target: Oxytocin receptor (Homo sapiens, UniProt P30559); assay: Counterscreen for vasopressin 1 receptor (V1R) agonists: Fluorescence-based cell-based high throughput dose response assay for agonists of the Oxytocin Receptor (OXTR). [Related pubchem assays: 2435 (Primary screen (OXTR agonists in singlicate)), 434964 (Confirmation screen (V1R agonists in triplicate)), 434969 (Counterscreen (OXTR agonists in …; format: functional
[8] = biological target: Peroxisome proliferator-activated receptor gamma/Nuclear receptor coactivator 2 (Homo sapiens, UniProt P37231); format: functional;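 also: agonist potency for raising coactivator recruitment to the receptor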
[9] = biological target: Peroxisome proliferator-activated receptor gamma/Nuclear receptor coactivator 1 (Homo sapiens, UniProt P37231); format: functional;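 also: agonist potency as compounds enhance coactivator SRC-1 recruitment to PPARgamma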
[10] = biological target: Peroxisome proliferator-activated receptor gamma/Nuclear receptor coactivator 3 (Homo sapiens, UniProt P37231); format: functional;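 also: agonist potency for raising coactivator recruitment to the receptor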
[11] = biological target: Estrogen receptor (Homo sapiens, UniProt P03372);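 also: potency for inhibiting coactivator peptide recruitment to the receptor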
[12] = biological target: Estrogen receptor beta (Homo sapiens, UniProt Q92731);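 also: recombinant ER-beta bound to coactivator SRC1 peptide in presence of estradiol agonist; inhibitors block coactivator peptide binding and lower the FRET signal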
Chain of Estrogen receptor beta (Q92731 whole entry): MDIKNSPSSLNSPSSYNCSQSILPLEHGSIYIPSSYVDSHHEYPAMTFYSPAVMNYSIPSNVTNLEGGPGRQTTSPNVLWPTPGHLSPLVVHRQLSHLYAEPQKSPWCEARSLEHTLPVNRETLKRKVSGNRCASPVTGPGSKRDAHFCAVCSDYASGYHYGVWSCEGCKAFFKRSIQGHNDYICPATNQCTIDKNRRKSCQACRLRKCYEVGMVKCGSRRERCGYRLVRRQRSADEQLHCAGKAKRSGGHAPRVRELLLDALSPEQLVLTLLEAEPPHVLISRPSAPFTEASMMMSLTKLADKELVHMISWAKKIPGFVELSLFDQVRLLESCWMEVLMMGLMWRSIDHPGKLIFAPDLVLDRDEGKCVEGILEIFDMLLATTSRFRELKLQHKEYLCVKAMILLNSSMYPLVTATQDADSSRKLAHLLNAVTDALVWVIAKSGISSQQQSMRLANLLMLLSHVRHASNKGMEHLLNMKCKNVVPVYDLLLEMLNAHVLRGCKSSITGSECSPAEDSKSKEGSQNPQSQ

Chain of Peroxisome proliferator-activated receptor gamma/Nuclear receptor coactivator 2 (P37231 whole entry): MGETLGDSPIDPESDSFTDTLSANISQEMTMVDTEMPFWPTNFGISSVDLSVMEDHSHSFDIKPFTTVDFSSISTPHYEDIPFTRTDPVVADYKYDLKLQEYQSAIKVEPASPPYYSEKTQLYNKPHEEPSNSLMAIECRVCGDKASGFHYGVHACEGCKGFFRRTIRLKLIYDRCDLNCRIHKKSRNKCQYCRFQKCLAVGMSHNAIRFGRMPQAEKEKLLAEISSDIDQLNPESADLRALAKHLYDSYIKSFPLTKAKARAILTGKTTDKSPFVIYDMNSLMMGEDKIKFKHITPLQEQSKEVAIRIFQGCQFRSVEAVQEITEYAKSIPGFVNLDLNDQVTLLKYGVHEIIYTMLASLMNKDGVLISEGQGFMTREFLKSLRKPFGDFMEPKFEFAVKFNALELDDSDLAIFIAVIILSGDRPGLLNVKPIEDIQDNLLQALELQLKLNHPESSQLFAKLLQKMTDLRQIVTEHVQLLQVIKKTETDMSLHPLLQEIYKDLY
Chain of Peroxisome proliferator-activated receptor gamma/Nuclear receptor coactivator 2 (Q15596 whole entry, further chain): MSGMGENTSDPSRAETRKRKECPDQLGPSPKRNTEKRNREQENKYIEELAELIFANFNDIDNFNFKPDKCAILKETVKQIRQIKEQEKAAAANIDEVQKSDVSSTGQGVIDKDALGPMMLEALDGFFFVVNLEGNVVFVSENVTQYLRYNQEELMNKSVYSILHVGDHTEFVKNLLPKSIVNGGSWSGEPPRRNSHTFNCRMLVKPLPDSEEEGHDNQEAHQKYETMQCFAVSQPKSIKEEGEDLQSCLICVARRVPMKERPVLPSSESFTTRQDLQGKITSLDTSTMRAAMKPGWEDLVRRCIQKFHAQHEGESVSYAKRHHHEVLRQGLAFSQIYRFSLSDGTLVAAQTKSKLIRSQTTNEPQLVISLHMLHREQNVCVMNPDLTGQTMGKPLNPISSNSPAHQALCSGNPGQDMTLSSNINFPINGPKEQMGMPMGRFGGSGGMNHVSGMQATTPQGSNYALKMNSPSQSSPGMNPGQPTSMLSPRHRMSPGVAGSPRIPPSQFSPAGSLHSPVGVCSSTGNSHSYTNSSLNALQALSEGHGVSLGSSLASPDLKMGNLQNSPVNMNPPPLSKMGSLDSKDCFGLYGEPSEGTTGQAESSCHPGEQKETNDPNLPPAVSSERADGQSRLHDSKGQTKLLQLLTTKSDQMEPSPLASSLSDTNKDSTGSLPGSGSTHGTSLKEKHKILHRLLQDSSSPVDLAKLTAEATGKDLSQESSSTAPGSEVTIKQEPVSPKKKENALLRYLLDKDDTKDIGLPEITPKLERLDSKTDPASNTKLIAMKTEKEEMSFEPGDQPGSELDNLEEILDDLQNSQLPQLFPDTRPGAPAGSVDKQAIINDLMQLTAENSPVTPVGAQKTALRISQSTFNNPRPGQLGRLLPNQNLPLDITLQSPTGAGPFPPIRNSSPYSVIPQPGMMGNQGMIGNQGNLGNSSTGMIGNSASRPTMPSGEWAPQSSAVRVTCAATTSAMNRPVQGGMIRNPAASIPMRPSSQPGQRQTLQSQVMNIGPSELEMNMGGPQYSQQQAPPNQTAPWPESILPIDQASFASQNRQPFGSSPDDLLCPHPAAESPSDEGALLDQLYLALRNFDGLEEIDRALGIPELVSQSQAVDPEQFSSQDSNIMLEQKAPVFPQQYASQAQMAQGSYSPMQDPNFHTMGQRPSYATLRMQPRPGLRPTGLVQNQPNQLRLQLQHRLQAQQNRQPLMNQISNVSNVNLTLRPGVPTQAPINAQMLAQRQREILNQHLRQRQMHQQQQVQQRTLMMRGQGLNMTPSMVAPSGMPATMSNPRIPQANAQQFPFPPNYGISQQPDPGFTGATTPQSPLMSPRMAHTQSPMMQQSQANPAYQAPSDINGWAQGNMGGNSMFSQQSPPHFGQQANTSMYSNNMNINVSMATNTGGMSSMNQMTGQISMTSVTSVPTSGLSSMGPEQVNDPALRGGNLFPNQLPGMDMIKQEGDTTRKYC
Chain of Peroxisome proliferator-activated receptor gamma/Nuclear receptor coactivator 1 (P37231 whole entry): as the sequence (P37231 whole entry) above
Chain of Peroxisome proliferator-activated receptor gamma/Nuclear receptor coactivator 1 (Q15788 whole entry, further chain): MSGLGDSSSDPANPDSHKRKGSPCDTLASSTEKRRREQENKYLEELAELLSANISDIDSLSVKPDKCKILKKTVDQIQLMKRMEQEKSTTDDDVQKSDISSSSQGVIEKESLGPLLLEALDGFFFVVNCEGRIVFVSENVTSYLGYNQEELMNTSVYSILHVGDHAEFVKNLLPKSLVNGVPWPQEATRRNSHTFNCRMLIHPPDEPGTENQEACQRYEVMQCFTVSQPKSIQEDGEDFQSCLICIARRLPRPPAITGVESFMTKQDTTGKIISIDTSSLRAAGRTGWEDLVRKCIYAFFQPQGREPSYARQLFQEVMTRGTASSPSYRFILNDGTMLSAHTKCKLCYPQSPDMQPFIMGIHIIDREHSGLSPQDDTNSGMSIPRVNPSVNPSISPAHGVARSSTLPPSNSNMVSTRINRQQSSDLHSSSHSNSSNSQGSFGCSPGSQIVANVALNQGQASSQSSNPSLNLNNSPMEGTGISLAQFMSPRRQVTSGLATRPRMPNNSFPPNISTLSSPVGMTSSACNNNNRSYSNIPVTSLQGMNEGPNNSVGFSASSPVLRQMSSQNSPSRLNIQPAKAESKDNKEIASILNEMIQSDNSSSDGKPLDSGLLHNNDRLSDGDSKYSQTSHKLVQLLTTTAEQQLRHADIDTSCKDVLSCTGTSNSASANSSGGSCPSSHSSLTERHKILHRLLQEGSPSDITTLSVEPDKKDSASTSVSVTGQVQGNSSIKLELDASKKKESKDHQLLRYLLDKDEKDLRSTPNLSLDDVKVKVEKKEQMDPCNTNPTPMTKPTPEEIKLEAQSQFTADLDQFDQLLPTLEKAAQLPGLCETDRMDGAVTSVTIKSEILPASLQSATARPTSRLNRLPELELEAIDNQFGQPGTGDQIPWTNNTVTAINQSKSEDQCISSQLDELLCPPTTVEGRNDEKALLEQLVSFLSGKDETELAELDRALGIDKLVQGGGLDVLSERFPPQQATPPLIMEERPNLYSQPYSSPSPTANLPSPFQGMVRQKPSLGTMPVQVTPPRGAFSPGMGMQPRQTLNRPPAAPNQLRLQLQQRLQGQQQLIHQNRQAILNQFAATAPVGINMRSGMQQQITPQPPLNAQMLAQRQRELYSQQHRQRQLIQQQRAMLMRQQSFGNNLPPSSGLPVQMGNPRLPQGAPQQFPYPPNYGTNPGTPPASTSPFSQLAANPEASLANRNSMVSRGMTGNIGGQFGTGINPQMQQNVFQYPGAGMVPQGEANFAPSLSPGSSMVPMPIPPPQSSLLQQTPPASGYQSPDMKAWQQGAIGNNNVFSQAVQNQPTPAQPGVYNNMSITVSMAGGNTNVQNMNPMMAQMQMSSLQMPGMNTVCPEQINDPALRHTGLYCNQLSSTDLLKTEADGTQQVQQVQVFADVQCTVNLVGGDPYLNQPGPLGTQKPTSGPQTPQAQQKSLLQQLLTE
Chain of Oxytocin receptor (P30559 whole entry): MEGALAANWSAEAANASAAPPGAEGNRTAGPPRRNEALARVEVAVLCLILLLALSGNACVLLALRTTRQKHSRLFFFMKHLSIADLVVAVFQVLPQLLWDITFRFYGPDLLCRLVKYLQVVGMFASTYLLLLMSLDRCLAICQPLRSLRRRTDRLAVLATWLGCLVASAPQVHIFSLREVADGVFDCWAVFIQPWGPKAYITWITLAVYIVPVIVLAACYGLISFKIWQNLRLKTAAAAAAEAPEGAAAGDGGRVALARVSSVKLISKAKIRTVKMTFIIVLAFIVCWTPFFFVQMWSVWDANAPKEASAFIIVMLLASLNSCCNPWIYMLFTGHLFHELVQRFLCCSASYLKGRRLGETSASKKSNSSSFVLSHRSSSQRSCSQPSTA

SMILES	IC50 [1]	IC50 [2]	EC50 [8]	EC50 [9]	EC50 [10]	further results
CCN(CC)CC(O)COc1ccc2c(c1)c(C(C)=O)c(C)n2-c1ccccc1 (configuration not stated)	6.95 µM (active)	4.37 µM (active)	–	–	–	–
O=c1c2cc(Br)ccc2nc(-c2cccc(Cl)c2)n1O	–	–	–	–	–	EC50 [3]: 9.44 µM (active); EC50 [4]: 6.68 µM (active); EC50 [5]: 2.86 µM (active); EC50 [6]: 1.13 µM (active); EC50 [7]: > 9.97 µM (active)
COc1ccc(CCN(Cc2nc(O)c3ccccc3n2)C(=O)c2ccco2)cc1OC	–	–	> 79.4 µM (not active)	> 79.4 µM (not active)	> 79.4 µM (not active)	–
O=C(c1cc(-c2ccco2)on1)N1CCc2ccccc2C1	–	–	–	–	–	IC50 [11]: 32.5 µM (not active); IC50 [12]: > 50 µM (not active)
COc1ccc(-c2cc(-c3cccs3)c(C#N)c(SCC(=O)NCc3ccccc3)n2)cc1	–	–	14.2 µM (not active)	18.8 µM (not active)	22.2 µM (not active)	–
CC(C)c1ccc(-c2nnn(Cc3nc4ccccc4s3)n2)cc1	4.61 µM (active)	5.68 µM (active)	–	–	–	–
